Reference: patent US7608604B2, “Antiparasitic agents” (Pfizer Limited, priority 2007, dated 2009)

What follows are compounds tested on Haemonchus contortus L3 (assay: Haemonchus contortus L3 (HcL3) in vitro test). Settings: minimum effective dose; exsheathed L3 larvae in vitro, 37° C., observed up to 4 days, n=2.
Format: cell-based
Method: The Haemonchus contortus L3 (HcL3) test is used to measure the biological activities of the compounds claimed. The assay involves in vitro testing against H. contortus conducted according to the following general procedure.
HcL3 larvae were collected from infected sheep and, after cleaning, stored in water at 12° C. for up to one month. Viable infective larvae were exsheathed using 10% hypochlorite in Glucose Tyrodes balanced salt solution containing antibiotics and resuspended in basal medium (20 g/l bacto-tryptone, 5 g/l yeast extract, 57 g/l glucose, 0.8 g/l di-Potassium hydrogen orthophosphate, 0.8 g/l potassium dihydrogen orthophosphate and […] Hepes with antibiotics). 95 μl worm suspension was added to each well of a 96 well plate.
Test compounds were dissolved in dimethylsulfoxide to give a working stock solution of 20 mg/ml. The stock concentration was diluted 1:10 in Basal media to give 2.0 mg/ml (10% DMSO). 5 μl of the stock compound solution was added to the worm suspension to give a final concentration of 100 μg/ml. Plates were sealed with pressure sensitive film and incubated at 37° C. Observations were made 2 hrs, 24 hrs, 48 hrs, 72 hrs and 4 days post-treatment using an inverted microscope. Activity was recorded if a significant proportion of the worms were dead or adversely affected by the compound when compared to the control well containing 1% DMSO. Compounds were initially tested at 100 μg/ml, wherefrom relevant dose responses (100, 30, 10, 3, 1, 0.3, 0.1 μg/ml) were conducted in duplicate experiments to generate n=2. Data was recorded as minimum effective dose.

Compound | in vitro H.c. (L3) MED [µg/mL]
CC(C#N)(COc1ccc(C#N)cc1C(F)(F)F)NC(=O)c1ccc(S(F)(F)(F)(F)F)cc1 (racemic) [Example 3a, N-{1-Cyano-2-[4-cyano-2-(trifluoromethyl)Phenoxy]-1-methylethyl}-4-(pentafluorothio)benzamide] | 1
CC(C#N)(COc1cc(C#N)ccc1C(F)(F)F)NC(=O)c1ccc(S(F)(F)(F)(F)F)cc1 (racemic) [Example 1a, N-{1-cyano-2-[5-cyano-2-(trifluoromethyl)phenoxy]-1-methylethyl}-4-(pentafluorothio)benzamide] | 3
C[C@](C#N)(COc1cc(C#N)ccc1C(F)(F)F)NC(=O)c1ccc(S(F)(F)(F)(F)F)cc1 (single isomer, unassigned) [Example 1c, N-{1-cyano-2-[5-cyano-2-(trifluoromethyl)phenoxy]-1-methylethyl}-4-(pentafluorothio)benzamide] | > 30

Same assay, conditions: minimum effective dose; table of Examples 5-11

Compound | H.c. (L3) MED [µg/mL]
CC(C#N)(COc1ccc(C#N)cc1Br)NC(=O)c1ccc(S(F)(F)(F)(F)F)cc1 (stereo not drawn) [Example 11, N-[2-(2-Bromo-4-cyanophenoxy)-1-cyano-1-methylethyl]-4-(pentafluorothio)benzamide] | 3
CC(C#N)(COc1cc(C#N)ccc1C#N)NC(=O)c1ccc(S(F)(F)(F)(F)F)cc1 (stereo not drawn) [Example 9, N-[1-Cyano-2-(3,6-dicyanophenoxy)-1-methylethyl]-4-(pentafluorothio)benzamide] | 3
CC(C#N)(COc1ccc(C#N)cc1Cl)NC(=O)c1ccc(S(F)(F)(F)(F)F)cc1 (stereo not drawn) [Example 5, N-[2-(2-Chloro-4-cyanophenoxy)-1-cyano-1-methylethyl]-4-(pentafluorothio)benzamide] | 3

Same assay, conditions: minimum effective dose; table of Examples 13a-42; 13a/b, 27a/b, 29a/b, 33a/b tested as mixtures of regioisomers

Compound | H.c. (L3) MED [µg/mL]
CC(C#N)(COc1ccc(Cl)cc1C#N)NC(=O)c1ccc(S(F)(F)(F)(F)F)cc1 (stereo not drawn) [Example 17, N-[2-(4-Chloro-2-cyanophenoxy)-1-cyano-1-methylethyl]-4-(pentafluorothio)benzamide] | 3
CC(C#N)(COc1cccc(Cl)c1)NC(=O)c1ccc(S(F)(F)(F)(F)F)cc1 (stereo not drawn) [Example 31] | 10
N-[2-(3-Chloro-4-fluorophenoxy)-1-cyano-1-methylethyl]-4-(pentafluorothio)benzamide [Example 13b] | 1
CC(C#N)(COc1ccccc1C#N)NC(=O)c1ccc(S(F)(F)(F)(F)F)cc1 (stereo not drawn) [Example 19, N-[1-Cyano-2-(2-cyanophenoxy)-1-methylethyl]-4-(pentafluorothio)benzamide] | 10
CC(C#N)(COc1ccc(Br)cc1F)NC(=O)c1ccc(S(F)(F)(F)(F)F)cc1 (stereo not drawn) [Example 34, N-[2-(4-Bromo-2-fluorophenoxy)-1-cyano-1-methylethyl]-4-(pentafluorothio)benzamide] | 10
CC(C#N)(COc1ccc(F)cc1C#N)NC(=O)c1ccc(S(F)(F)(F)(F)F)cc1 (stereo not drawn) [Example 27a, N-[1-Cyano-2-(2-cyano-4-fluorophenoxy)-1-methylethyl]-4-(pentafluorothio)benzamide] | 3
CC(C#N)(COc1ccc(Cl)cc1F)NC(=O)c1ccc(S(F)(F)(F)(F)F)cc1 (stereo not drawn) [Example 28, N-[2-(4-Chloro-2-fluorophenoxy)-1-cyano-1-methylethyl]-4-(pentafluorothio)benzamide] | 3
CC(C#N)(COc1ccc(C(F)(F)F)cc1F)NC(=O)c1ccc(S(F)(F)(F)(F)F)cc1 (stereo not drawn) [Example 30, N-{1-Cyano-2-[2-fluoro-4-(trifluoromethyl)phenoxy]-1-methylethyl}-4-(pentafluorothio)benzamide] | 10
CC(C#N)(COc1cccc(F)c1Cl)NC(=O)c1ccc(S(F)(F)(F)(F)F)cc1 (stereo not drawn) [Example 39, N-[2-(2-Chloro-3-fluorophenoxy)-1-cyano-1-methylethyl]-4-(pentafluorothio)benzamide] | 30
CC(C#N)(COc1cccc(C#N)c1Br)NC(=O)c1ccc(S(F)(F)(F)(F)F)cc1 (stereo not drawn) [Example 37, N-[2-(2-Bromo-3-cyanophenoxy)-1-cyano-1-methylethyl]-4-(pentafluorothio)benzamide] | 3
CC(C#N)(COc1ccc(C#N)cc1F)NC(=O)c1ccc(S(F)(F)(F)(F)F)cc1 (stereo not drawn) [Example 29a, N-[1-Cyano-2-(4-cyano-2-fluorophenoxy)-1-methylethyl]-4-(pentafluorothio)benzamide] | 10
CC(C#N)(COc1cc(Cl)ccc1C#N)NC(=O)c1ccc(S(F)(F)(F)(F)F)cc1 (stereo not drawn) [Example 24, N-[2-(5-Chloro-2-cyanophenoxy)-1-cyano-1-methylethyl]4-(pentafluorothio)benzamide] | 3
CC(C#N)(COc1ccc(F)cc1Br)NC(=O)c1ccc(S(F)(F)(F)(F)F)cc1 (stereo not drawn) [Example 33a, N-[2-(2-Bromo-4-fluorophenoxy)-1-cyano-1-methylethyl]-4-(pentafluorothio)benzamide] | 10
CC(C#N)(COc1ccc(I)cc1)NC(=O)c1ccc(S(F)(F)(F)(F)F)cc1 (stereo not drawn) [Example 20, N-[1-Cyano-2-(4-iodophenoxy)-1-methylethyl]-4-(pentafluorothio)benzamide] | 3
N-[2-(2-Chloro-4-fluorophenoxy)-1-cyano-1-methylethyl]-4-(pentafluorothio)benzamide [Example 13a] | 1
CC(C#N)(COc1cc(F)cc(Cl)c1)NC(=O)c1ccc(S(F)(F)(F)(F)F)cc1 (stereo not drawn) [Example 23, N-[2-(3-Chloro-5-fluorophenoxy)-1-cyano-1-methylethyl]-4-(pentafluorothio)benzamide] | 30
CC(C#N)(COc1cc(Br)ccc1C#N)NC(=O)c1ccc(S(F)(F)(F)(F)F)cc1 (stereo not drawn) [Example 16, N-[2-(5-Bromo-2-cyanophenoxy)-1-cyano-1-methylethyl]-4-(pentafluorothio)benzamide] | 10
CC(C#N)(COc1cc(C#N)ccc1Br)NC(=O)c1ccc(S(F)(F)(F)(F)F)cc1 (stereo not drawn) [Example 32, N-[2-(2-Bromo-5-cyanophenoxy)-1-cyano-1-methylethyl]-4-(pentafluorothio)benzamide] | 3
CC(C#N)(COc1ccc(Br)cc1C#N)NC(=O)c1ccc(S(F)(F)(F)(F)F)cc1 (stereo not drawn) [Example 41, N-[2-(4-Bromo-2-cyanophenoxy)-1-cyano-1-methylethyl]-4-(pentafluorothio)benzamide] | 10
CC(C#N)(COc1ccc(C#N)cc1)NC(=O)c1ccc(S(F)(F)(F)(F)F)cc1 (stereo not drawn) [Example 22, N-[1-Cyano-2-(4-cyanophenoxy)-1-methylethyl]-4-(pentafluorothio)benzamide] | 10
CC(C#N)(COc1cc(C#N)ccc1F)NC(=O)c1ccc(S(F)(F)(F)(F)F)cc1 (stereo not drawn) [Example 29b, N-[1-Cyano-2-(5-cyano-2-fluorophenoxy)-1-methylethyl]-4-(pentafluorothio)benzamide] | 10
CC(C#N)(COc1cccc(Br)c1C#N)NC(=O)c1ccc(S(F)(F)(F)(F)F)cc1 (stereo not drawn) [Example 40, N-[2-(3-Bromo-2-cyanophenoxy)-1-cyano-1-methylethyl]-4-(pentafluorothio)benzamide] | 10
CC(C#N)(COc1cccc(Cl)c1C#N)NC(=O)c1ccc(S(F)(F)(F)(F)F)cc1 (stereo not drawn) [Example 26, N-[2-(3-Chloro-2-cyanophenoxy)-1-cyano-1-methylethyl]-4-(pentafluorothio)benzamide] | 10

Same assay, conditions: minimum effective dose; table of Examples 45-49

Compound | H.c. (L3) MED [µg/mL]
CC(C#N)(COc1ccc(C#N)cc1C#N)NC(=O)c1ccc(S(F)(F)(F)(F)F)cc1 (stereo not drawn) [Example 47, N-[1-Cyano-2-(2,4-dicyanophenoxy)-1-methylethyl]-4-(pentafluorothio)benzamide] | 10
CC(C#N)(COc1ccc(C(N)=O)cc1Cl)NC(=O)c1ccc(S(F)(F)(F)(F)F)cc1 (stereo not drawn) [Example 49] | 10
CC(C#N)(COc1cc(C#N)ccc1C#N)NC(=O)c1ccc(S(F)(F)(F)(F)F)cc1 (stereo not drawn) [Example 46, N-[1-Cyano-2-(2,5-dicyanophenoxy)-1-methylethyl]-4-(pentafluorothio)benzamide] | 10

Same assay, conditions: minimum effective dose; unit not given

Compound | in vitro H.c. (L3) MED
CC(C#N)(COc1cccc(C#N)c1)NC(=O)c1ccc(S(F)(F)(F)(F)F)cc1 (racemic) [Example 50, N-[1-Cyano-2-(3-cyanophenoxy)-1-methylethyl]-4-(pentafluorothio)benzamide] | 3
